Earlier results as cited in PubChem BioAssay AID1259409 (Chemical Carcinogenesis Research Information System (CCRIS), 2018).
Several values for one entry are separate records, joined by “and”; a condition that tells them apart may be missing. Identical values can stand only once.

Tested on: rodent chemically induced tumor inhibition, incidence and multiplicity
Assay: CCRIS tumor inhibitor studies

Compound: S=C=NCCc1ccccc1
- tumour outcome (control, treated, inhibition, significance) (Carcinogen: 4-(N-NITROSOMETHYLAMINO)-1-(3-PYRIDYL)-1-BUTANONE, 64091-91-4, Dose [Inhibitor]: 0, 3 UMOL/G/DIET BEGINNING 1 WK PRIOR TO CARCINOGEN TREATMENT AND CONTINUING FOR 21 WK (STUDY DURATION: 104 WK), Route [Inhibitor]: ORAL, Species: RAT, Strain/Sex: F344/MALE, Target Tissue: Type of Lesion: NASAL CAVITY: BENIGN TUMOR, Dose [Carcinogen]: 1.76 MG/KG 3/WK FOR 20 WK, Promoter: NONE USED): 8/40 (20%), 6/40 (15%), 25%, not calculated
- tumour outcome (control, treated, inhibition, significance) (Carcinogen: 4-(N-NITROSOMETHYLAMINO)-1-(3-PYRIDYL)-1-BUTANONE, 64091-91-4, Dose [Inhibitor]: 0, 3 UMOL/G/DIET BEGINNING 1 WK PRIOR TO CARCINOGEN TREATMENT AND CONTINUING FOR 21 WK (STUDY DURATION: 104 WK), Route [Inhibitor]: ORAL, Species: RAT, Strain/Sex: F344/MALE, Target Tissue: Type of Lesion: NASAL CAVITY: SQUAMOUS-CELL CARCINOMA, Dose [Carcinogen]: 1.76 MG/KG 3/WK FOR 20 WK, Promoter: NONE USED): 3/40 (8%), 1/40 (3%), 63%, not calculated
- tumour outcome (control, treated, inhibition, significance) (Carcinogen: 4-(N-NITROSOMETHYLAMINO)-1-(3-PYRIDYL)-1-BUTANONE, 64091-91-4, Dose [Inhibitor]: 0, 5 UMOL/D FOR 4 CONSECUTIVE DAYS (STUDY DURATION: 16.5 WK), Route [Inhibitor]: GAVAGE, Species: MOUSE, Strain/Sex: STRAIN-A/FEMALE, Target Tissue: Type of Lesion: LUNG: ADENOMA, Dose [Carcinogen]: 10 UMOL ONCE 2 HR POST LAST AGENT DOSE, Promoter: NONE USED): 100%, 89%, 11%, not calculated and 100%, 93%, 7%, not calculated
- tumour outcome (control, treated, inhibition, significance) (Carcinogen: 4-(N-NITROSOMETHYLAMINO)-1-(3-PYRIDYL)-1-BUTANONE, 64091-91-4, Dose [Inhibitor]: 0, 25 UMOL/D FOR 4 CONSECUTIVE DAYS (STUDY DURATION: 16.5 WK), Route [Inhibitor]: GAVAGE, Species: MOUSE, Strain/Sex: STRAIN-A/FEMALE, Target Tissue: Type of Lesion: LUNG: ADENOMA, Dose [Carcinogen]: 10 UMOL ONCE 2 HR POST LAST AGENT DOSE, Promoter: NONE USED): 100%, 30%, 70%, p<0.01
- tumour outcome (control, treated, inhibition, significance) (Carcinogen: 7,12-DIMETHYLBENZ[A]ANTHRACENE, 57-97-6, Dose [Inhibitor]: 0, 600 PPM IN DIET FOR DURATION OF STUDY BEGINNING 1 WK PRIOR TO CARCINOGEN DOSE (STUDY DURATION: 107 D), Route [Inhibitor]: ORAL, Species: RAT, Strain/Sex: SPRAGUE-DAWLEY/FEMALE, Target Tissue: Type of Lesion: MAMMARY GLAND: ADENOCARCINOMA, Dose [Carcinogen]: 12 MG ONCE, Promoter: NONE USED): 70%, 85%, -21%, not significant
- tumour outcome (control, treated, inhibition, significance) (Carcinogen: 7,12-DIMETHYLBENZ[A]ANTHRACENE, 57-97-6, Dose [Inhibitor]: 0, 1200 PPM IN DIET FOR DURATION OF STUDY BEGINNING 1 WK PRIOR TO CARCINOGEN DOSE (STUDY DURATION: 107 D), Route [Inhibitor]: ORAL, Species: RAT, Strain/Sex: SPRAGUE-DAWLEY/FEMALE, Target Tissue: Type of Lesion: MAMMARY GLAND: ADENOCARCINOMA, Dose [Carcinogen]: 12 MG ONCE, Promoter: NONE USED): 70%, 75%, -7%, not significant
- tumour outcome (control, treated, inhibition, significance) (Carcinogen: 7,12-DIMETHYLBENZ[A]ANTHRACENE, 57-97-6, Dose [Inhibitor]: 5.5 MG/G DIET AT AGE 9 WK SIMULTANEOUSLY WITH CARCINOGEN 3/WK FOR 4 WK (STUDY DURATION: 20 WK), Route [Inhibitor]: ORAL, Species: MOUSE, Strain/Sex: ICR/FEMALE, Target Tissue: Type of Lesion: FORESTOMACH: TUMOR, Dose [Carcinogen]: 0.05 MG/G DIET AT AGE 9 WK 3/WK FOR 4 WK, Promoter: NONE USED): 93%, 12%, 87%, p<0.001
- tumour outcome (control, treated, inhibition, significance) (Carcinogen: 7,12-DIMETHYLBENZ[A]ANTHRACENE, 57-97-6, Dose [Inhibitor]: 5.5 MG/G DIET AT AGE 9 WK SIMULTANEOUSLY WITH CARCINOGEN 3/WK FOR 4 WK (STUDY DURATION: 20 WK), Route [Inhibitor]: ORAL, Species: MOUSE, Strain/Sex: ICR/FEMALE, Target Tissue: Type of Lesion: LUNG: ADENOMA, Dose [Carcinogen]: 0.05 MG/G DIET AT AGE 9 WK 3/WK FOR 4 WK, Promoter: NONE USED): 100%, 89%, 11%, not significant
- tumour outcome (control, treated, inhibition, significance) (Carcinogen: 7,12-DIMETHYLBENZ[A]ANTHRACENE, 57-97-6, Dose [Inhibitor]: 55 MG ONCE 4 HR BEFORE DMBA TREATMENT (STUDY DURATION: 18 WK), Route [Inhibitor]: INTRAGASTRIC, Species: RAT, Strain/Sex: SPRAGUE-DAWLEY/FEMALE, Target Tissue: Type of Lesion: MAMMARY GLAND: TUMOR, Dose [Carcinogen]: 12 MG IN 1 ML OLIVE OIL AT AGE 7 WK, Promoter: NONE USED): 100%, 43%, 57%, p<0.001
- tumour outcome (control, treated, inhibition, significance) (Carcinogen: BENZO[A]PYRENE [50-32-8], Dose [Inhibitor]: 0.3 UMOL/G IN DIET FOR 10 WK BEGINNING 1 WK PRIOR TO FIRST CARCINOGEN DOSE (STUDY DURATION: 28 WK), Route [Inhibitor]: ORAL, Species: MOUSE, Strain/Sex: A/J/FEMALE, Target Tissue: Type of Lesion: LUNG: TUMOR, Dose [Carcinogen]: 3 UMOL IN 0.1 ML COTTONSEED OIL 1X/WK FOR 8 WK (STUDY DURATION: 28 WK), Promoter: NONE): 100%, 100%, 0%, not calculated
- tumour outcome (control, treated, inhibition, significance) (Carcinogen: BENZO[A]PYRENE [50-32-8], Dose [Inhibitor]: 1 UMOL/G IN DIET FOR 10 WK BEGINNING 1 WK PRIOR TO FIRST CARCINOGEN DOSE (STUDY DURATION: 28 WK), Route [Inhibitor]: ORAL, Species: MOUSE, Strain/Sex: A/J/FEMALE, Target Tissue: Type of Lesion: LUNG: TUMOR, Dose [Carcinogen]: 3 UMOL IN 0.1 ML COTTONSEED OIL 1X/WK FOR 8 WK (STUDY DURATION: 28 WK), Promoter: NONE): 100%, 100%, 0%, not calculated
- tumour outcome (control, treated, inhibition, significance) (Carcinogen: BENZO[A]PYRENE [50-32-8], Dose [Inhibitor]: 3 UMOL/G IN DIET FOR 10 WK BEGINNING 1 WK PRIOR TO FIRST CARCINOGEN DOSE (STUDY DURATION: 28 WK), Route [Inhibitor]: ORAL, Species: MOUSE, Strain/Sex: A/J/FEMALE, Target Tissue: Type of Lesion: LUNG: TUMOR, Dose [Carcinogen]: 3 UMOL IN 0.1 ML COTTONSEED OIL 1X/WK FOR 8 WK (STUDY DURATION: 28 WK), Promoter: NONE): 100%, 100%, 0%, not calculated
- outcome (Carcinogen: BENZO[A]PYRENE, 50-32-8, Dose [Inhibitor]: 0, 5 UMOL IN ACETONE 4 HR PRIOR TO CARCINOGEN DOSE (STUDY DURATION: 20 WK), Route [Inhibitor]: DERMAL, Species: MOUSE, Strain/Sex: STRAIN-A/FEMALE, Target Tissue: Type of Lesion: SKIN: TUMOR, Dose [Carcinogen]: 0.1 UMOL IN ACETONE ONCE, Promoter: 12-O-TETRADECANOYLPHORBOL-13-ACETATE, 16561-29-8): 70%, 65%, 7%, not significant at 15 wk; 95%, 85%, 11%, not significant at 20 wk
- tumour outcome (control, treated, inhibition, significance) (Carcinogen: BENZO[A]PYRENE, 50-32-8, Dose [Inhibitor]: 0, 6.7 UMOL IN COTTONSEED OIL 15 MIN PRIOR TO CARCINOGEN DOSES 1/2 WK FOR 3 TREATMENTS (STUDY DURATION: 26 WK), Route [Inhibitor]: GAVAGE, Species: MOUSE, Strain/Sex: STRAIN-A/FEMALE, Target Tissue: Type of Lesion: FORESTOMACH: TUMOR, Dose [Carcinogen]: 7.9 UMOL IN COTTONSEED OIL 1/2 WK FOR 3 TREATMENTS, Promoter: NONE USED): 95%, 90%, 5%, not significant
- tumour outcome (control, treated, inhibition, significance) (Carcinogen: BENZO[A]PYRENE, 50-32-8, Dose [Inhibitor]: 0, 6.7 UMOL IN COTTONSEED OIL 15 MIN PRIOR TO CARCINOGEN DOSES 1/2 WK FOR 3 TREATMENTS (STUDY DURATION: 26 WK), Route [Inhibitor]: GAVAGE, Species: MOUSE, Strain/Sex: STRAIN-A/FEMALE, Target Tissue: Type of Lesion: LUNG: TUMOR, Dose [Carcinogen]: 7.9 UMOL IN COTTONSEED OIL 1/2 WK FOR 3 TREATMENTS, Promoter: NONE USED): 95%, 90%, 5%, not significant
